Source: paper PMC9859815 (Scientific Reports, 2023)
Read-outs that look alike come from different tables or passages of the source.

Experiments:
[1] = Pakistani, cited from earlier work
[2] = Single-dose, 2-sequence, 2-period crossover pharmacokinetic/bioequivalence study, fasting oral administration, healthy Chinese subjects (also by CYP2C19 phenotype and gender); type: in vivo; settings: human, plasma, mean ± SD
Protocol: Forty subjects were randomly divided into two groups, with 20 patients in each group. […] The subjects in each group fasted after 21:00 the night before administration. […] The blood samples were centrifuged at 1700 g (4 °C) for 10 min within 1 h of collection. The centrifuged plasma was immediately aliquoted into 2 tubes with corresponding labels (1 for testing, 1 for backup, the volume of plasma in each tube should not be less than 500 µL) and stored at […] until analysis. The total time from whole blood collection to centrifugation to separate plasma and then stored in […] refrigerator should not exceed 2 h.
The sample pretreatment method was the protein precipitation method.
Terminal elimination rate constant λz and the apparent terminal elimination half-life (T1/2) were also needed. AUC0–∞ (the AUC from time 0 to infinity) used the formula: AUC0–∞ = AUC0–t + Ct/λ(T1/2 = 0.693/λz) to calculate.
SAS 9.4 software was used for statistical analysis.

[3] = cited from earlier work

COc1ccc2[nH]c([S+]([O-])Cc3ncc(C)c(OC)c3C)nc2c1 (centres unmarked) [omeprazole]
AUC0–t ([1]; females): 8740 ± 2230 ng·h/mL
Cmax ([1]; females): 2913 ± 610 ng/mL
AUC0–t ([1]; males): 6670 ± 4320 ng·h/mL
Cmax ([1]; males): 2006 ± 980 ng/mL
AUC(0-t) ([2]; CYP2C19 EM (N = 12)): 553 ± 391 ng·h/mL
half-life ([2]; CYP2C19 PM (N = 4)): 2.48 ± 0.24 h
Cmax ([3]; CYP2C19 EM, Caucasians): 285 ± 82.9 ng/mL
T1/2 ([3]; CYP2C19 EM, Caucasians): 0.71 ± 0.1 h
AUC0–t ([3]; CYP2C19 EM, Japanese): 618.3 ± 141.9 ng·h/mL
Cmax ([3]; CYP2C19 EM, Japanese): 251.1 ± 46.2 ng/mL
AUC0–t ([3]; CYP2C19 EM, Korean): 713.49 ± 555.56 ng·h/mL
AUC0–t ([3]; CYP2C19 EM, West Asian): 250.5 ± 16.1 ng·h/mL
Cmax ([3]; CYP2C19 EM, West Asians): 152.4 ± 9.94 ng/mL
T1/2 ([3]; CYP2C19 EM, West Asians): 0.9 ± 0.01 h
AUC0–t ([3]; CYP2C19 EM, Whites): 635.5 ± 259.7 ng·h/mL
T1/2 ([3]; CYP2C19 PM, Caucasians): 2.68 ± 0.3 h
Cmax ([3]; CYP2C19 PM, East Asians (so in the source)): 538.6 ± 33.5 ng/mL
Cmax ([3]; CYP2C19 PM, Japanese): 1070.2 ± 185.3 ng/mL
T1/2 ([3]; CYP2C19 PM, Japanese): 2.41 ± 0.15 h
T1/2 ([3]; CYP2C19 PM, West Asians): 2.42 ± 0.18 h
